Measured values: paper PMC9223397 (International Journal of Molecular Sciences, 2022)

What was measured:
[1] = system: NMJs of hindlimb muscle in SOD1^G93A mice; test: Neuromuscular junction innervation in SOD1G93A mice; format: in vivo, SOD1^G93A male mice; settings: 5 mg/kg i.p.; 16 weeks of age
Procedure: (§1) The compounds were dissolved in 0.5% hydroxypropyl-methylcellulose (HPMC; H7509, Sigma-Aldrich) in distilled water and were administered by intraperitoneal (i.p.) route twice daily (bid) in a volume of 10 mL/kg. Administrations were given from 30 min after rhizotomy surgery until 42 days post-injury (dpi), the end of the study; in the SOD1^G93A study, treatments were given from 8 to 16 weeks of age (see Figure 6).
For neuromuscular junction (NMJ) labeling, 50 µm thick longitudinal sections of TA muscle were serially cut. Sections were blocked with 5% normal donkey serum and incubated with primary antibodies rabbit anti-synaptophysin (1:500; Ab32127, Abcam, Cambridge, UK) and chicken anti-neurofilament 200 (NF200, 1:1000; AB5539, Millipore, Burlington, MS, USA) 48 h at 4 °C. After washes, sections were incubated overnight with secondary antibody Alexa Fluor 594-donkey anti-rabbit and anti-chicken (1:200; A11042-A21207, Invitrogen, USA) and Alexa 488 conjugated α-bungarotoxin (1:500; B13422, Life Technologies, Carlsbad, CA USA). Confocal images were captured (LSM 700 Axio Observer, Carl Zeiss, Jena, Germany, 40xOil/z0.5), and the maximum projection images generated from 1.3 µm z projections. The proportion of innervated NMJs was calculated by classifying each endplate as occupied (when presynaptic terminals overlie the endplate) or vacant (no presynaptic label in contact with the endplate). At least 60 endplates were analyzed per muscle.

[2] = system: microglia and astrocytes in ventral horn after rhizotomy; test: Glial reactivity after L4-L5 rhizotomy (Iba1, GFAP immunolabeling); format: in vivo, female mice (B6SJL); settings: 5 mg/kg bid i.p., 42 dpi; for GFAP integrated density ± SEM (astroglial reactivity): untreated 19 × 10^4; for Iba1 integrated density ± SEM (microglial reactivity): untreated 26 × 10^4
Procedure: (§2) Surgeries were performed on three-month-old mice under anesthesia with ketamine-xylazine (100–10 mg/kg i.p.) as previously described. Briefly, the L4-L5 spinal roots were exposed by a small laminectomy on the right side. Afterwards, roots were cut at the exit from the intervertebral foramina, and the root stumps were separated. Mice were cared for until recovery in a warm environment. Analgesia was provided with buprenorphine (0.1 mg/kg) for the next 48 h post-surgery.
as §1
(§3) For glial cells immunofluorescence, other lumbar spinal cord sections were blocked with 10% normal donkey serum and incubated overnight with primary antibodies rabbit anti-Iba1 (1:500; 019–19741, Wako) and rat anti-GFAP (1:500; 13-0300, Invitrogen) to label microglia and astroglia, respectively. After several washes, sections were incubated with secondary antibodies Alexa Fluor 488-donkey anti-rat (1:500; A-21208, Invitrogen) or Alexa Fluor 594 donkey anti-rabbit (1:500; A21207, Invitrogen). Finally, sides were mounted with Fluoromount-G. To quantify glial cell reactivity, images of the ventral horn were acquired with an epifluorescence microscope (Nikon Eclipse Ni, Japan) using the same conditions for each analyzed marker. After defining a threshold for background correction, the integrated density of GFAP or Iba1 labeling was measured using ImageJ software.

[3] = system: microglia and astrocytes in ventral horn of SOD1^G93A mice; test: Glial reactivity in SOD1G93A mice (Iba1, GFAP); format: in vivo, SOD1^G93A male mice; settings: 5 mg/kg i.p.; 16 weeks of age
Procedure: as §1, §3

[4] = Tolerability of chronic administration in rhizotomy mice; format: in vivo; settings: twice daily i.p. for 6 weeks, 0.5 and 5 mg/kg
Procedure: as §1

SOD1^G93A mice = test: Motor nerve conduction tests in SOD1G93A mice; format: in vivo, SOD1^G93A male mice
Procedure: as §1
Motor nerve conduction tests were performed before the surgery to obtain baseline values and at the end of the follow-up in the rhizotomy model, whereas the SOD1^G93A mice were evaluated at 8 weeks (prior to starting drug administration) and then every 2–3 weeks until the end point at 16 weeks of age (Figure 6). The sciatic nerve was stimulated by means of single pulses of 50 µs duration delivered from a Grass S88 stimulator through needle electrodes placed at the sciatic notch. The CMAP was recorded from TA, GM, and plantar interossei muscles with microneedle electrodes, with the active electrode being placed in the muscle and the reference at the fourth toe. […] The mice were anesthetized with pentobarbital (50 mg/kg i.p.), and their body temperature was maintained by means of a thermostatic warming pad.

[5] = system: spinal α-MNs in SOD1^G93A mice; test: Spinal MN counts in SOD1G93A mice; format: in vivo, SOD1^G93A male mice; settings: 5 mg/kg i.p.; 16 weeks of age; untreated 6.9 ± 0.5, WT 25.3 ± 0.5
Procedure: as §1
(§4) At the end of follow-up (42 dpi for rhizotomy and 16 weeks of age for ALS mice; Figure 6), the animals were deeply anesthetized and transcardially perfused with 4% PFA in PBS. The lumbar spinal cord and the TA muscle were harvested and cryopreserved in 30% sucrose solution in PB. The spinal cords were serially cut in 20 µm thick transverse sections with a cryostat (Leica, Mannheim, Germany). For MN counting, L4-L5 spinal cord sections separated 100 µm were stained for 3 h with an acidified solution of 3.1 mM cresyl violet. MNs were identified by their localization in the lateral ventral horn of the spinal cord and were counted following strict size and morphological criteria: only MNs with a diameter larger than 20 µm, polygonal shape, and prominent nucleoli were counted.

[6] = biological target: T1, human Sigma-2 receptor (Sig-2R) (Homo sapiens, UniProt Q5BJF2); test: Human Sig-2R radioligand assay; format: binding; settings: [3H]-DTG, transfected HEK-293 Sig-1R knockout membranes
T1 construct: expressed in transfected cells; host or cells: HEK-293 Sig-1R knockout (membranes)
Procedure: The binding properties of the compounds to the human Sig-2R were similarly studied in transfected HEK-293 Sig-1R knockout membranes using [^3H]-1,3-di-o-tolylguanidine (DTG) (NET-986, PerkinElmer; Boston, USA) as the radioligand. The assay was carried out with 15 μg of membrane suspension, [^3H]-1,3-di-o-tolylguanidine (DTG) (10 nM, 100 μL), in either the absence or presence of either buffer or 10 μM haloperidol for total (TB) and nonspecific (NSB) binding, respectively, or the corresponding compound concentration. Binding buffer contained Tris-HCl (50 mM, pH 7.4). Plates were incubated at 25 °C for 120 min. After incubation, the reaction mix was transferred to MultiScreen HTS, FC plates (Merck Millipore) presoaked in 0.5% polyethyleneimine, and filtered. Following that, plates were washed with ice-cold Tris-HCl (10 mM, pH 8). Filters were dried and counted, and data were processed as above.

[7] = system: spinal MNs after L4-L5 rhizotomy; test: MN survival after L4-L5 rhizotomy (cresyl violet MN counts); format: in vivo, female mice (B6SJL)
Procedure: as §2, §1, §4

[8] = 5 mg/kg i.p. from 8 weeks of age, early (11 weeks) and mid (13 weeks) stages
[9] = 0.5 mg/kg bid i.p., 42 dpi, not significant
[10] = 5 mg/kg/bid i.p. 6 weeks, 42 days after injury, untreated injured 6.8 ± 0.3

T1 sequence (Q5BJF2 whole entry): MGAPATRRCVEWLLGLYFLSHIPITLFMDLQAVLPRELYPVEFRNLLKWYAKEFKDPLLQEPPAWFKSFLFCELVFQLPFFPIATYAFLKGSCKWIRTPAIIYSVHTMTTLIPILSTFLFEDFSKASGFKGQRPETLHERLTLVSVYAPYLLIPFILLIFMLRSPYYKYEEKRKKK

Structure (SMILES)	Proportion of innervated endplates (NMJ) vs vehicle [1]	GFAP integrated density ± SEM (astroglial reactivity) [2]	Iba1 integrated density ± SEM (microglial reactivity) [2]	Astrocyte activation (GFAP) [3]	Microglial activation (Iba1) [3]	Toxicity of chronic administration (behavior, body weight) [4]	CMAP amplitude of TA and plantar muscles vs vehicle (SOD1^G93A mice; [8])	CMAP amplitude of TA and plantar muscles vs vehicle (SOD1^G93A mice; 5 mg/kg i.p., at 16 weeks of age)	Number of surviving spinal α-MNs [5] [MNs per section]	IC50 [6] [µM]	Number of spinal MNs ± SEM, ipsilateral ventral horn [7, 9]	Number of spinal MNs ± SEM, ipsilateral ventral horn [7, 10]
C[C@@H]1OC2(CCN(Cc3ccc(F)cc3)CC2)CN(C)C1=O [EST79232]	tendency to preserve NMJ innervation, although differences did not reach statistical significance	4 × 10^4 ± 0.4 × 10^4	13 × 10^4 ± 2 × 10^4	significant decrease in astrocyte activation	did not reduce microglial activation	did not cause overt toxicity in the animals	significantly prevented the decline in amplitude of the CMAP of TA and plantar muscles	effect was reduced to levels found in the vehicle group	10.8 ± 1.1	> 10	7.6 ± 0.9	8.6 ± 0.6
CCN1CC2(CCN(Cc3ccc(C#N)c(F)c3)CC2)O[C@@H](C)C1=O [EST79376]	tendency to preserve NMJ innervation, although differences did not reach statistical significance	15 × 10^4 ± 2.7 × 10^4	25 × 10^4 ± 4 × 10^4	significant decrease in astrocyte activation	did not reduce microglial activation	did not cause overt toxicity in the animals	only showed significant preservation of the CMAP amplitude in the plantar muscle at 13 weeks of age	–	8.5 ± 1.0	> 10	7.4 ± 0.7	8.7 ± 0.5
